# B1: BMP4: previously reported megakaryocyte promoting factor (protein, UniProt P12644 293-408, looked up)
# Bone morphogenetic protein 4: SPKHHSQRARKKNKNCRRHSLYVDFSDVGWNDWIVAPPGYQAFYCHGDCPFPLADHLNSTNHAIVQTLVNSVNSSIPKACCVPTELSAISMLYLDEYDKVVLKNYQEMVVEGCGCR
# B2: IL11: cytokine reported to enhance expansion and maturation of megakaryocytes (protein, UniProt P20809 22-199, looked up)
# Interleukin-11: PGPPPGPPRVSPDPRAELDSTVLLTRSLLADTRQLAAQLRDKFPADGDHNLDSLPTLAMSAGALGALQLPGVLTRLRADLLSYLRHVQWLRRAGGSSLKTLEPELGTLQARLDRLLRRLQLLMSRLALPQPPPDPPAPPLAPPSSAWGGIRAAHAILGGLHLTLDWAVRGLLLLKTRL
# Experiments:
# Assay type in all cases: cell-based, human
# [1] = test system: CD41a+ megakaryocytes from hESC derived BCs; assay: Megakaryocyte (MK) differentiation/expansion culture from hESC derived blast cells, CD41a+ cell count; settings: for yields / expansion of CD41a+ megakaryocytes: serum-free Stemline II MK culture of day 6 to 8 BCs, factors compared to TPO and SCF only, 4 day liquid culture
# Procedure: BCs from day 6 to 8 blast cultures were purified and plated (1 to 5×10^5/ml) in Stemline II media supplemented with 50 ng/ml TPO, 20 ng/ml SCF and other cytokines to induce BC differentiation toward MKs. Half of the MK culture media was replaced with fresh media every 2 or 3 days.
# In order to further direct the differentiation of megakaryocytes, day 6 to day 8 BCs from methylcellulose semi-solid cultures were harvested and then resuspended in serum-free media, i.e., Stemline II supplemented with cytokines for MK culture. The cell count of CD41a+ cells was used as readout to determine the expansion megakaryocytes during the suspension culture, which was calculated by multiplying the percentage of CD41a+(FACS) and total live cell count (Trypan blue exclusion). […] A panel of cytokines and factors were also tested in order to achieve high purity and the total yield of megakaryocytes from BCs. These factors including IL9 and BMP4 were previously reported as megakaryocyte promoting factors in other systems^21:22.
# Certain factors, however, did slightly increase the percentage of CD41+ cells (not shown).
# [2] = test system: hESC derived blast cells (BCs); assay: Blast culture, percentage of CD41a+ cells by FACS; settings: for percentage of CD41a+ cells at the end of blast culture: TPO 100 ng/ml and SCF 50 ng/ml together, second phase of EB formation and blast colony growth
# Procedure: The procedure for EB formation and BC generation were performed as previously reported^17:19. In brief, hESCs at 70% confluency were dissociated by 0.05% trypsin and plated in Ultra-Low dishes (Corning, N.Y.) with Stemline II (Sigma) medium supplemented with BMP-4, VEGF (50 ng/ml). Half of the medium was replaced after 48 hours with fresh medium containing the same cytokines plus bFGF 20 ng/ml, SCF, Flt3 ligand (FL) and Tpo (50 ng/ml each, R&D System). On day 4, EBs were collected and dissociated by 0.05% trypsin. Single-cell suspensions were obtained by passing the cells through 22-gauge needle and through a 40 μm cell strainer, collected by centrifugation, and resuspended in Stemline II media. Live cells were counted by trypan blue exclusion, and 1 to 2×10^5/ml were mixed with blast colony growth medium (BGM) as previously described, and plated in Ultra-Low dishes. Blast colonies were observed 3-4 days after plating, followed by rapid expansion.
# Cells from blast cultures or megakaryocyte cultures are monitored routinely by flow cytometry analyses on FACS Caliber. Fluorochrome conjugated antibodies for lineage markers, CD41a, CD42a, CD42b and CD235a (BD Biosciences) were used to characterize the megakaryocyte and erythroid lineages. Antibodies were freshly prepared (1:100 dilution for CD42a and CD42b antibodies; 1:250 dilution for CD41a antibody; 1:2000 for CD235a antibody) in PBS with 5% new born calf serum. Typically 1 to 2×10^5 cells were used for antibody labeling. Cells were stained in 100 μl antibody cocktail for 1 hour on ice, then washed twice with buffer, and resuspended in 250 μl buffer supplemented with 1 μg/ml propidium iodide. To detect the expression level of HLA-ABC, platelets were incubated with a fluorescein isothiocyanate (FITC)-conjugated antihuman HLA-ABC antibody or FITC-conjugated mouse immunoglobulin G (IgG) as a control. The samples were then analyzed using a flow cytometer (FACSCalibur, Becton Dickinson), and data were analyzed using Cellquest or Flowjo software. Cell sorting was performed on BD FACS Aria system at UMASS Medical School Core Facility. […]
# [3] = test system: platelet integrin receptor; assay: Platelet spreading on immobilized fibrinogen and vWF; settings: control plasma platelets and ES-PLTs on fibrinogen, stimulated with agonist
# Procedure: Chamber slides with microtiter wells (Nalgen Nunc, Rochester, N.Y.) were coated with […] fibrinogen (Sigma) in 0.1M NaHCO3 (pH 8.3) at 4° C. overnight. Washed human peripheral platelets or hESC-platelets (1×10^7/mL) were allowed to adhere and spread on fibrinogen-coated wells at 37° C. for 90 minutes. In some samples, platelets were preincubated with an integrin antagonist, RGDS peptide, for 5 minutes before loading. In other samples, platelets were mixed with ADP (10 μM) or thrombin (1 U/ml) (Sigma-Aldrich, St Louis, Mo.), and immediately loaded on to fibrinogen-coated wells. […] Adherent platelets were viewed with an Olympus BX51 fluorescence microscope (MVI, Avon, Mass.) using a PlanApo lens at 100×/1.40 oil objective. […]
# Integrin outside-in signaling functional property in ES-PLTs was further assessed by spreading assay on immobilized fibrinogen on glass slides. […]
# Chamber slides with microtiter wells (Nalgen Nunc, Rochester, N.Y.) were coated with 100 μg/mL fibrinogen or vWF ([…]) (Sigma-Aldrich, St Louis, Mo.) in 0.1M NaHCO3 (pH 8.3) at 4° C. overnight. […] Adherent platelets were viewed with an Olympus BX51 fluorescence microscope using a PlanApo lens at 100×/1.40 oil objective. […]
# [4] = test system: hESC-PLTs; assay: CD41a/CD42b expression on hESC-PLTs generated under feeder-free conditions (FACS); settings: GM6001 100 μM during late stage of differentiation
# Procedure: To examine whether functional platelets were generated under feeder-free conditions, the inventors examined CD41a/CD42b expression on hESC-derived platelets (hESC-PLTs) by FACS analyses. […] However, less than 5% of these hESC-PLTs were CD42b positive. […] Supplement of GM6001 (100 μM) during late stage of human ESC-PLTs differentiation increased CD41a and CD42b double positive hESC-PLTs to about 15%. The function of feeder-free generated hESC-PLTs was assessed by integrin dependent spreading assay on immobilized fibrinogen and vWF. Anti-human CD41a antibody and DAPI staining were used to identify platelets.
# Hemangioblast/BC generation from hESC lines (HuES-3, H7 [WA07], MA01, and MA09) was performed as previously reported^17:20. BCs from day 6 to 8 cultures were purified and plated (1 to 5×10^5/ml) in Stemline II media supplemented with 50 ng/ml TPO, 20 ng/ml SCF and 20 ng/ml IL-11 (Peprotech) to induce BC differentiation toward MKs. Half of the MK culture media was replaced with fresh media every 2 or 3 days. […]
# Cells from blast cultures or MK cultures are monitored routinely by flow cytometry analyses on FACSCalibur (Becton Dickinson) or Accuri C6 Cytometer (Accuri Cytometers). […] The samples were then analyzed with FACSCalibur, and data analyzed using Cellquest or Flowjo software. […] Cellular DNA content was analyzed on an Accuri C6 cytometer.
Molecule,yields / expansion of CD41a+ megakaryocytes [1],other results
VEGF,slightly increased,
TPO: cytokine in MK culture media,not sufficient,percentage of CD41a+ cells at the end of blast culture [2]: increased
IL9: previously reported megakaryocyte promoting factor,did not show obvious effects,
Nc1ncnc2c1ncn2[C@@H]1O[C@H](COP(=O)(O)OP(=O)(O)O)[C@@H](O)[C@H]1O [ADP],,lamellipodia and actin stress fiber formation [3]: enhanced
IL 6: cytokine tested in MK culture,slightly increased,
CNC(=O)[C@H](Cc1c[nH]c2ccccc12)NC(=O)[C@@H](CC(=O)NO)CC(C)C [GM6001],,CD41a and CD42b double positive hESC-PLTs [4]: about 15%
C[C@@H](N)[C@H]1CC[C@H](C(=O)Nc2ccncc2)CC1 [Y27632],,CD41+ cell count at the end of 4 day culture ([1]; 10 μM during 4 day MK culture): reduced; percentage of polyploid cells ([1]; 10 μM during 4 day MK culture): dramatically increased
thrombin,,lamellipodia and actin stress fiber formation [3]: enhanced
bFGF: growth factor tested in MK culture,slightly increased,
SCF: cytokine in MK culture media,significantly increased,percentage of CD41a+ cells at the end of blast culture [2]: increased
B1,did not show obvious effects,
B2,slightly increased,ratio of CD41a+ cells in day 6 to 8 blast cultures ([2]; IL-11 20 ng/ml in BGM medium): further increased

# — patent publication US9988603B2, “Large scale generation of functional megakaryocytes and platelets from human embryonic stem cells under stromal-free conditions” (Stem Cell & Regenerative Medicine International, priority 2009, dated 2018)
